Measurements from ChEMBL document CHEMBL1134901, “Synthesis and activity of novel HIV protease inhibitors with improved potency against multiple PI-resistant viral strains” (Bioorg Med Chem Lett, 2002).

How the values were obtained:
[1] = system: Human immunodeficiency virus 1; assay: In vitro inhibition of spread of viral infection using 4X mutant virus; format: functional; conditions: read-out: CIC95
MT4 = assay: Concentration required to inhibit the spread of viral infection in MT-4 human T-lymphoid cells infected by the NL4-3 virus; format: functional; conditions: read-out: CIC95
[2] = molecular target: T1, Human immunodeficiency virus type 1 protease (Human immunodeficiency virus 1, UniProt Q72874); assay: Inhibitory concentration against wild-type HIV-1 protease
[3] = Maximum concentration in dogs administered perorally (5 mg/kg) and intravenously (2 mg/kg); format: ADME, organism-based, Canis lupus familiaris; conditions: dog, in vivo, po
[4] = Intrinsic clearance in human liver microsomes; format: ADME, Microsome
[5] = Plasma clearance in dogs administered perorally (5 mg/kg) and intravenously (2 mg/kg); format: ADME, organism-based, Canis lupus familiaris; conditions: dog, iv, read-out: Clp
[6] = system: Human immunodeficiency virus 1; assay: Potency against PI-resistant viral isolate construct HIV K-60C; format: functional; conditions: read-out: CIC95
[7] = system: Human immunodeficiency virus 1; assay: Potency against PI-resistant viral isolate construct HIV Q-60C; format: functional; conditions: read-out: CIC95
[8] = system: Human immunodeficiency virus 1; assay: Potency against PI-resistant virus HIV 4X; format: functional; conditions: read-out: CIC95
[9] = system: Human immunodeficiency virus 1; assay: Potency against PI-resistant virus HIV NL-4; format: functional; conditions: read-out: CIC95
Cytochrome P450 2D6 = Cytochrome P450 2D6 (Homo sapiens, UniProt P10635); assay: Inhibition of cytochrome P450 2D6; format: ADME
Chain of Cytochrome P450 2D6 (P10635 whole entry): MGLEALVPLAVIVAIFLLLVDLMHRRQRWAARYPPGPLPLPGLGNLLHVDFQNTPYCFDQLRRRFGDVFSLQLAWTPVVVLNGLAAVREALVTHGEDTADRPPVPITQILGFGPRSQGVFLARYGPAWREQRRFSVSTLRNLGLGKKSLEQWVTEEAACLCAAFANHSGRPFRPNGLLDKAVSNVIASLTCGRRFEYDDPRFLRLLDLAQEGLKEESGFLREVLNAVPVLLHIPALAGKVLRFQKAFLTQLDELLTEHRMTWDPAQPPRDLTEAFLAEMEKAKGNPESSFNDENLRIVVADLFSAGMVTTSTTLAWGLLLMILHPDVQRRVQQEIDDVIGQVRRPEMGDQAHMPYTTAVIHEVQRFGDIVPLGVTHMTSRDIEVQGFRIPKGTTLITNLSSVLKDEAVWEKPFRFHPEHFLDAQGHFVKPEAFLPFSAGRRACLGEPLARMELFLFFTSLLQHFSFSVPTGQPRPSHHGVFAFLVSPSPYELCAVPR

Cytochrome P450 3A4 = Cytochrome P450 3A4 (Homo sapiens, UniProt P08684); assay: Inhibition of cytochrome P450 3A4; format: ADME
Chain of Cytochrome P450 3A4 (P08684 whole entry): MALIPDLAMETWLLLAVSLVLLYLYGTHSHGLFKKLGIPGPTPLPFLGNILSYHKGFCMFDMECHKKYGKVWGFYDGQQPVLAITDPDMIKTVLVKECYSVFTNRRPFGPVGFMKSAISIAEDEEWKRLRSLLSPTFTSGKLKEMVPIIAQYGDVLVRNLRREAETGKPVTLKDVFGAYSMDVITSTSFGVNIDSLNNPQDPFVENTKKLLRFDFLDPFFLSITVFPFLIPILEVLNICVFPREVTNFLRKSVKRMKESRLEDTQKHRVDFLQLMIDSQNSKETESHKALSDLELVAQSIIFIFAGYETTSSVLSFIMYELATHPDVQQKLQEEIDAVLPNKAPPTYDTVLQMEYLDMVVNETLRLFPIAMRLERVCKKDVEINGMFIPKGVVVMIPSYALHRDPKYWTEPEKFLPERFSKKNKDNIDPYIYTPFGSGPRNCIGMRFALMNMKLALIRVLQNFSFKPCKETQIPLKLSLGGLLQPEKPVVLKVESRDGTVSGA

[10] = system: Human immunodeficiency virus 1; assay: Potency against PI-resistant viral isolate construct HIV V-18C; format: functional; conditions: read-out: CIC95
[11] = molecular target: T1, Human immunodeficiency virus type 1 protease; assay: Inhibitory concentration required to inhibit cleavage of a substrate by thewild-type HIV-1 protease enzyme
[12] = Bioavailability in dog (dose 5 mg/kg p.o. and 2 mg/kg i.v.); format: ADME, organism-based, Canis lupus familiaris; conditions: in vivo, po
[13] = Half life in dogs administered perorally (5 mg/kg) and intravenously (2 mg/kg); format: ADME, organism-based, Canis lupus familiaris; conditions: dog, in vivo
[14] = Area under curve in dogs administered perorally (5 mg/kg) and intravenously (2 mg/kg); format: ADME, organism-based, Canis lupus familiaris; conditions: dog, in vivo

Row | Structure (SMILES) | IC95 [1] | IC95 (MT4) | IC50 [2] | further results
1 | CC(C)CNC(=O)[C@@H]1CN(C(C)(C)c2cc3cnccc3o2)CCN1C[C@@H](O)C[C@@H](Cc1ccccc1)C(=O)N[C@H]1c2ccccc2OC[C@H]1O | 125 nM | 15 nM | 0.4 nM | 
2 | CC(C)(C)CNC(=O)[C@@H]1CN(C(C)(C)c2cc3cnccc3o2)CCN1C[C@@H](O)C[C@@H](Cc1ccccc1)C(=O)N[C@H]1c2ccccc2OC[C@H]1O | 500 nM | 31 nM | 1.16 nM | 
3 | CC(C)(C)NC(=O)[C@@H]1CN(C(C)(C)c2cc3cnccc3o2)CCN1C[C@@H](O)C[C@@H](Cc1ccccc1)C(=O)N[C@H]1c2ccccc2OC[C@H]1O | 31 nM | ≤ 8 nM | 0.08 nM | Cmax [3]: 8.8 µM; CLint scaled [4]: 34 mL/min/kg; clearance [5]: 14.2 mL/min/kg; IC95 [6]: 500 nM; IC95 [7]: 125 nM; IC95 [8]: 16 nM; IC95 [9]: 9.2 nM; IC50 (Cytochrome P450 2D6): 2430 nM; IC50 (Cytochrome P450 3A4): 310 nM; IC95 [10]: 125 nM
4 | CC(C)(c1cc2cnccc2o1)N1CCN(C[C@@H](O)C[C@@H](Cc2ccccc2)C(=O)N[C@H]2c3ccccc3OC[C@H]2O)[C@H](C(=O)NCc2cccs2)C1 | 125 nM | 94 nM |  | IC50 [11]: 0.65 nM
5 | CC(C)(c1cc2cnccc2o1)N1CCN(C[C@@H](O)C[C@@H](Cc2ccccc2)C(=O)N[C@H]2c3ccccc3OC[C@H]2O)[C@H](C(=O)NCC(F)(F)F)C1 | ≤ 8 nM | ≤ 8 nM | 0.07 nM | bioavailability [12]: 65%; half-life [13]: 52 min; Cmax [3]: 17 µM; AUC [14]: 18.8 µM·h; CLint scaled [4]: 22 mL/min/kg; clearance [5]: 4.01 mL/min/kg; IC95 [6]: 250 nM; IC95 [7]: 62 nM; IC95 [8]: ≤ 8 nM; IC95 [9]: ≤ 8 nM; IC50 (Cytochrome P450 2D6): 520 nM; IC50 (Cytochrome P450 3A4): 30 nM; IC95 [10]: 62 nM
6 | CC(C)(c1cc2cnccc2o1)N1CCN(C[C@@H](O)C[C@@H](Cc2ccccc2)C(=O)N[C@H]2c3ccccc3OC[C@H]2O)[C@H](C(=O)Nc2ccccc2)C1 | > 1000 nM | 250 nM | 13.8 nM | 
7 | CC(C)(c1cc2cnccc2o1)N1CCN(C[C@@H](O)C[C@@H](Cc2ccccc2)C(=O)N[C@H]2c3ccccc3OC[C@H]2O)[C@H](C(=O)NC2CC2)C1 | 250 nM | 62 nM | 0.6 nM | 
8 | O=C(N[C@H]1c2ccccc2C[C@H]1O)[C@H](Cc1ccccc1)C[C@H](O)CN1CCN(Cc2cccnc2)C[C@H]1C(=O)NCC(F)(F)F |  |  |  | IC95 [6]: > 1000 nM; IC95 [7]: 62 nM; IC95 [8]: 125 nM; IC95 [9]: 62 nM; IC95 [10]: 500 nM
9 | CC(C)(c1cc2cnccc2o1)N1CCN(C[C@@H](O)C[C@@H](Cc2ccccc2)C(=O)N[C@H]2c3ccccc3OC[C@H]2O)[C@H](C(=O)NCC(F)(F)C(F)(F)F)C1 | 62 nM | ≤ 8 nM | 0.14 nM | 
10 | CC(C)(c1cc2cnccc2o1)N1CCN(C[C@@H](O)C[C@@H](Cc2ccccc2)C(=O)N[C@H]2c3ccccc3OC[C@H]2O)[C@H](C(=O)NCCC(F)(F)F)C1 | 500 nM | 62 nM | 1.6 nM | 
11 | CC(C)(c1cc2cnccc2o1)N1CCN(C[C@@H](O)C[C@@H](Cc2ccccc2)C(=O)N[C@H]2c3ccccc3OC[C@H]2O)[C@H](C(=O)NCC2CC2)C1 | 125 nM | 46 nM | 0.5 nM | 
12 | CCNC(=O)[C@@H]1CN(C(C)(C)c2cc3cnccc3o2)CCN1C[C@@H](O)C[C@@H](Cc1ccccc1)C(=O)N[C@H]1c2ccccc2OC[C@H]1O | 62 nM | 31 nM | 0.61 nM | 
13 | CC(C)(C)NC(=O)[C@@H]1CN(Cc2cccnc2)CCN1C[C@@H](O)C[C@@H](Cc1ccccc1)C(=O)N[C@H]1c2ccccc2C[C@H]1O |  |  |  | IC95 [6]: > 1000 nM; IC95 [7]: > 1000 nM; IC95 [8]: 400 nM; IC95 [9]: 50 nM; IC95 [10]: > 1000 nM
14 | CC(C)(c1cc2cnccc2o1)N1CCN(C[C@@H](O)C[C@@H](Cc2ccccc2)C(=O)N[C@H]2c3ccccc3OC[C@H]2O)[C@H](C(=O)NC2CCCC2)C1 | 31 nM | ≤ 8 nM | 0.37 nM | 
15 | CC(C)(c1cc2cnccc2o1)N1CCN(C[C@@H](O)C[C@@H](Cc2ccccc2)C(=O)N[C@H]2c3ccccc3OC[C@H]2O)[C@H](C(=O)NCc2ccccc2)C1 | 250 nM | 125 nM | 2.19 nM | 
